Experiment: Thermal gravimetric analysis of the ILs and DSILs
Format: physicochemical
Conditions: TGA under nitrogen, 10° C./min
Description: Thermal behavior was determined using a Mettler Toledo Stare TGA/DSC1 unit (Mettler Toledo, Leicester, UK) under nitrogen. Samples between 3 and 10 mg were placed in alumina crucibles (70 μL) and heated from room temperature to 75° C. at a heating rate of 10° C./min. An isotherm at 75° C. was maintained for 30 min to eliminate all volatiles, if any. After the isothermal step, the temperature was ramped to 800° C. at a heating rate of 10° C./min. The data was analyzed using STARe Evaluation software.

T5% (decomposition temperature of 5% sample) [°C]	T50% (decomposition temperature of 50% sample) [°C]	Structure (SMILES)
173.1	211.4	CC(=O)[O-].C[N+](C)(C)CCO [[Ch][Ace], cholinium acetate]
155.9	218.1	C[N+](C)(C)CCO.NCCCC[C@H](N)C(=O)[O-] [[Ch][Lys], cholinium lysinate]
180.7	209.5	CCCCCCCC(=O)[O-].C[N+](C)(C)CCO [[Ch][Oct], cholinium octanoate]
177.7	225.3	CCCCCCCCCCCCCCCC(=O)[O-].C[N+](C)(C)CCO [[Ch][Pal], cholinium palmitate]

Reference: patent publication US20220195666A1, “USE OF A PLURALITY OF SALT IONIC LIQUIDS IN THE PRETREATMENT OF BIOMASS” (priority 2020, published 2022)
